Laboratory results reported in patent US8765433B2, “Alcohol dehydrogenases (ADH) useful for fermentive production of lower alkyl alcohols” (priority 2009, dated 2014).

Experiments:
Assay in all cases: isobutyraldehyde reduction kinetics (A340, initial rates)
Assay type in all cases: biochemical
[1] = target: Acinetobacter baumannii AYE ADH (AbADH), SEQ ID NO: 36
Excerpt: (§1) This example describes preparation of ADH-gene constructs for over-expression/purification and measurement of enzyme activities using a time-course assay. Horse-liver ADH (HLADH; A-6128) was purchased from Sigma. Achromobacter xylosoxidans SadB (SadB), Saccharomyces cerevisiae ADH6 (ScADH6) and ADH7 (ScADH7), Entamoeba histolytica ADH1 (EhADH1), Bos Taurus Aldehyde Reductase (BtARD), Beijerinckia indica subsp. Indica ATCC 9039 (BiADH), Clostridium beijerinckii ADH (CbADH), Rana perezi ADH8 (RpADH8), Rattus norvegicus ADH1 (RnADH1), Thermus sp. ATN1 ADH (TADH), Phenylobacterium zucineum HLK1 ADH (PzADH), Methylocella silvestris BL2 ADH (MsADH), Acinetobacter baumannii AYE ADH (AbADH), Geobacillus sp. WCH70 ADH (GbADH), Vanderwaltozyma polyspora DSM 70294 ADH (VpADH), Mucor circinelloides ADH (McADH), and Rhodococcus erythropolis PR4ADH (ReADH) were the candidates for which subclones were prepared for protein expression and purification.
(§2) As a routine practice, the crude extracts and purified proteins were assayed for butanol oxidation activity, in order to ensure that the recombinant proteins were active throughout the purification process. […] Alcohol oxidation activities were carried out in 50 mM sodium phosphate buffer at pH 8.8 and aldehyde reduction reactions were assayed in 190 mM potassium phosphate buffer at pH 7.0. Depending on the nature of reaction being carried out, the enzyme and cofactor stocks were diluted in the reaction buffers at the respective pHs. Either buffer or cell extract prepared from the proprietary E. coli strain (with no ADH plasmid) was used as the negative control for assays with purified protein and cell-free extracts, respectively.
(§3) Kinetic constants of the ADH enzymes were calculated and compared to identify those candidate ADH enzymes with the most desirable properties for the conversion of isobutyraldehyde to isobutanol in the last step of the engineered pathway for isobutanol production. The assays for determining the kinetic constants were carried out using initial rates from the assays described above. […] The concentration of a given enzyme was such that it was conducive for the measurement of initial velocities over a 1-min time course. For each enzyme, Michaelis-Menten plots were generated with a broad range of substrate concentrations. Rough estimates of KM were obtained, based on which the assays were redesigned so as to use substrate concentrations in the range 0.5 to 10 times the KM value, to be able to obtain the appropriate kinetic constants. […] When calculating the KI for isobutanol, the same reactions were carried out in the presence of varying concentrations of isobutanol (generally 0-535 mM) in the reaction (see FIG. 7, for example). Reactions with isobutanol substrate were performed at 30° C. in 50 mM Sodium phosphate buffer, pH 8.8, containing 7.5 mM NAD. The Enzyme kinetics module (Version 1.3) of SigmaPlot 11 (Systat Software, Inc.) was used to fit data to Michaelis-Menten equations and calculate the kinetic constants. The kcat/KM is derived from the individual numbers of kcat and KM and not an experimentally determined value. The ratios of the KM, KI, and kcat/KM for each candidate enzyme as compared to the same parameter for SadB are given in Table 9.
(§4) Seven additional candidate ADH enzymes were synthesized, expressed, and assayed according to methods such as described in Example 2. Kinetic constants obtained for the indicated ADH enzymes (Phenylobacterium zucineum HLK1 ADH (PzADH), Methylocella silvestris BL2 ADH (MsADH), Acinetobacter baumannii AYE ADH (AbADH), Geobacillus sp. WCH70 ADH (GbADH), and Mucor circinelloides ADH (McADH)) are given in Table 8. A comparison of KM, KI, and kcat/KM for each candidate enzyme as compared to the same parameter for SadB are given in Table 9 as a percentage of the values determined (Table 7) for SadB. […]

[2] = target: T1, Geobacillus sp. WCH70 ADH (GbADH), SEQ ID NO: 37 (Parageobacillus toebii, UniProt A0A6G9J337)
T1 construct: 346 aa, begins […]) in pBADHisA, N-terminal His tag, expressed in E. coli, purified
T1 sequence (A0A6G9J337 entry or part of it): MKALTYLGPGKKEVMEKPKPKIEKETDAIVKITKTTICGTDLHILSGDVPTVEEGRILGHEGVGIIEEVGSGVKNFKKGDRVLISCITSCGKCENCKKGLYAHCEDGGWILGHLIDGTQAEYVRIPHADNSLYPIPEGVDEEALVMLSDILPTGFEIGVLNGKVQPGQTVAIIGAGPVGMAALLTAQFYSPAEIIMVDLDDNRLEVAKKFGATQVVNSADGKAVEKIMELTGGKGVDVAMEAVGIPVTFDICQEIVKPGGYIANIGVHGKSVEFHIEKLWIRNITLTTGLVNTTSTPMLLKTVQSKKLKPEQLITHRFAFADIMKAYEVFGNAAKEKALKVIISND
Excerpt: as §1, §2, §3, §4

[3] = target: T2, Methylocella silvestris BL2 ADH (MsADH), SEQ ID NO: 35 (Methylocella silvestris, UniProt B8ELZ1)
T2 sequence (B8ELZ1 1-345): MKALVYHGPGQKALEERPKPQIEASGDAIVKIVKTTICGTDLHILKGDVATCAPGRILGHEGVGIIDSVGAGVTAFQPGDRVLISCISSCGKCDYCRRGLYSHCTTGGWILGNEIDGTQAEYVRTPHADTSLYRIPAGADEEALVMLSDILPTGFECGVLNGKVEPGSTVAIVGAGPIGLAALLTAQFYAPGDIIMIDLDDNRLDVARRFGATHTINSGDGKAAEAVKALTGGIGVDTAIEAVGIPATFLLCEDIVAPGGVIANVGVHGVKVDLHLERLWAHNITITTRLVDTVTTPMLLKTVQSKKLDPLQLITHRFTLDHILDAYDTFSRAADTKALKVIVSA
Excerpt: as §1, §2, §3, §4

[4] = target: Mucor circinelloides ADH (McADH), SEQ ID NO: 39 (Mucor circinelloides, UniProt Q66UT6)
Chain of Mucor circinelloides ADH (McADH), SEQ ID NO: 39 (Q66UT6 entry or part of it): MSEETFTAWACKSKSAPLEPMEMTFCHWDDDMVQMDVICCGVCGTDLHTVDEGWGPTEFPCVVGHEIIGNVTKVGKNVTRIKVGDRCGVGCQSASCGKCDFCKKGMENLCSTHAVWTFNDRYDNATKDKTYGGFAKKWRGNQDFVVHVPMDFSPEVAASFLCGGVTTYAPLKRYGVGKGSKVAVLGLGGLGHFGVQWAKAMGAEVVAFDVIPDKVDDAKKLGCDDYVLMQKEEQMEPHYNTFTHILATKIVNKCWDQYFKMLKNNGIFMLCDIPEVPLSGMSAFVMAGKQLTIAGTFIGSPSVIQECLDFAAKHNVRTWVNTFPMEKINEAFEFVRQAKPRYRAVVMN
Excerpt: as §1, §2, §3, §4

[5] = target: T3, Phenylobacterium zucineum HLK1 ADH (PzADH), SEQ ID NO: 34 (Phenylobacterium zucineum, UniProt B4RIA4)
T3 sequence (B4RIA4 1-345): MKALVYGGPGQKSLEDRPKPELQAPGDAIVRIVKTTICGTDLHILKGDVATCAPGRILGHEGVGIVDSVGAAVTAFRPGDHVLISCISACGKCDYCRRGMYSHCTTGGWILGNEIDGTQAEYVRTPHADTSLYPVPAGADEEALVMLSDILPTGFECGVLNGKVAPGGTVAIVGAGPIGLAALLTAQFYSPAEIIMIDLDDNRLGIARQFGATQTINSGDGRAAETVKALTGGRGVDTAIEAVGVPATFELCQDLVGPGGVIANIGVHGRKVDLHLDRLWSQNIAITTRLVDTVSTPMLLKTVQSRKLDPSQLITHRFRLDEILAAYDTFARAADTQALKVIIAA
Excerpt: as §1, §2, §3, §4

CC(C)CO [isobutanol, 2-methylpropan-1-ol]
KI as a percentage of the same parameter for SadB ([1]; relative to SadB): 169% | Ki ([2]; isobutyraldehyde reduction, varying isobutanol, NADPH specific): 13 mM | KI as a percentage of the same parameter for SadB ([2]; relative to SadB): 7% | Ki ([3]; read-out: KI (Isobutanol)): 19 mM | KI as a percentage of the same parameter for SadB ([3]; relative to SadB): 11% | Ki ([4]; read-out: KI (Isobutanol)): 79 mM | KI as a percentage of the same parameter for SadB ([4]; relative to SadB): 44% | Ki ([5]; read-out: KI (Isobutanol)): 13 mM | KI as a percentage of the same parameter for SadB ([5]; relative to SadB): 7%

CC(C)C=O [isobutyraldehyde]
Km ([1]; 30° C., pH 7.0, NADH specific, read-out: KM (Isobutanal)): 10 mM | kcat ([1]; isobutyraldehyde reduction, 30° C., pH 7.0, NADH specific): 99 s⁻¹ | KM as a percentage of the same parameter for SadB ([1]; relative to SadB): 1020% | kcat as a percentage of the same parameter for SadB ([1]; relative to SadB): 91% | kcat/KM as a percentage of the same parameter for SadB ([1]; relative to SadB): 9% | KM as a percentage of the same parameter for SadB ([2]; relative to SadB): 44% | kcat as a percentage of the same parameter for SadB ([2]; relative to SadB): 29% | kcat/KM as a percentage of the same parameter for SadB ([2]; relative to SadB): 69% | KM as a percentage of the same parameter for SadB ([3]; relative to SadB): 6% | kcat as a percentage of the same parameter for SadB ([3]; relative to SadB): 30% | kcat/KM as a percentage of the same parameter for SadB ([3]; relative to SadB): 532% | KM as a percentage of the same parameter for SadB ([4]; relative to SadB): 3000% | kcat as a percentage of the same parameter for SadB ([4]; relative to SadB): 138% | kcat/KM as a percentage of the same parameter for SadB ([4]; relative to SadB): 5% | KM as a percentage of the same parameter for SadB ([5]; relative to SadB): 10% | kcat as a percentage of the same parameter for SadB ([5]; relative to SadB): 28% | kcat/KM as a percentage of the same parameter for SadB ([5]; relative to SadB): 243%
